From the supplement of paper PMC4862054

Tests used:
Conditions in all cases: incubation time: 72 h
[1] = test system: BT-474; test: normalised viability (% of control), CellTiter-Blue; higher = more viable cells (about 100 = DMSO control)
How it was run: (§1)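 The reported quantity is normalised viability at a single listed concentration of the series. Compound in 5 µl medium was pre-dispensed into 384-well plates and 20 µl of breast cancer cell suspension was added for 72 h. A 2 h, 37 °C CellTiter-Blue step (2.5 µl) preceded fluorescence reading at 560/590 nm, and plates were normalised to vehicle (100) and a positive kill control (0).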

[2] = test system: BT-549; test: as above
How it was run: as §1

[3] = test system: CAL-148; test: as above
How it was run: as §1

[4] = test system: CAL-85-1; test: as above
How it was run: as §1

[5] = test system: DU-4475; test: as above
How it was run: as §1

[6] = test system: HCC1143; test: as above
How it was run: as §1

[7] = test system: HCC1599; test: as above
How it was run: as §1

[8] = test system: HCC1937; test: as above
How it was run: as §1

[9] = test system: HDQ-P1; test: as above
How it was run: as §1

[10] = test system: Hs578T; test: as above
How it was run: as §1

[11] = test system: MDA-MB-231; test: as above
How it was run: as §1

[12] = test system: MDA-MB-453; test: as above
How it was run: as §1

[13] = test system: MDA-MB-468; test: as above
How it was run: as §1

[14] = test system: SK-BR-3; test: as above
How it was run: as §1

[15] = test system: BT-474; test: drug sensitivity score (DSS), CellTox Green (DSS (AUC-based score)); higher = stronger drug effect (viability inhibition or cytotoxicity); extreme values may be limits of the assay
How it was run: (§2)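 Using 20 µl of cell suspension per well, breast cancer cell lines were seeded into 384-well plates pre-loaded with compound at 5 concentrations in 10-fold steps across a compound-specific 10,000-fold range. Incubation lasted 72 h, after which CellTox Green fluorescence at 485/520 nm and then CellTiter-Glo luminescence, following 10 min at room temperature, were recorded. Each plate was normalised to 0.1 % DMSO and a positive kill control before the drug sensitivity score was derived from the area under the fitted dose-response curve.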

[16] = test system: BT-549; test: as above
How it was run: as §2

[17] = test system: CAL-120; test: as above
How it was run: as §2

[18] = test system: CAL-51; test: as above
How it was run: as §2

[19] = test system: CAL-85-1; test: as above
How it was run: as §2

[20] = test system: DU-4475; test: as above
How it was run: as §2

[21] = test system: HCC1599; test: as above
How it was run: as §2

[22] = test system: HCC1937; test: as above
How it was run: as §2

[23] = test system: Hs578T; test: as above
How it was run: as §2

[24] = test system: MCF-10A; test: as above
How it was run: as §2

[25] = test system: MDA-MB-231; test: as above
How it was run: as §2

[26] = test system: MDA-MB-436; test: as above
How it was run: as §2

[27] = test system: MDA-MB-453; test: as above
How it was run: as §2

[28] = test system: MDA-MB-468; test: as above
How it was run: as §2

Compound | normalised viability ([1]; 100 nM) | normalised viability ([2]; 100 nM) | normalised viability ([3]; 10 nM) | normalised viability ([4]; 10 nM) | normalised viability ([5]; 10 nM) | normalised viability ([6]; 100 nM) | normalised viability ([7]; 100 nM) | normalised viability ([8]; 100 nM) | drug sensitivity score [15] | drug sensitivity score [16] | drug sensitivity score [17] | drug sensitivity score [18] | drug sensitivity score [19] | drug sensitivity score [20] | drug sensitivity score [21] | drug sensitivity score [23] | drug sensitivity score [24] | drug sensitivity score [26] | drug sensitivity score [27] | drug sensitivity score [28] | other results
N#Cc1ccc(COC[C@H]2O[C@@H](n3c(NCc4ccc(Cl)c(Cl)c4)nc4c(N)ncnc43)[C@H](O)[C@@H]2O)cc1 | 123% | 95.2% | 103% | 110% | 111% | 94.7% | 97.1% | 99.4% | 0 | 0 | 0 | 0 | 2.89 | 0 | 0 | 0 | 0 | 0 | 0 | 0 | normalised viability ([9]; 10 nM): 116%; normalised viability ([10]; 100 nM): 95.8%; normalised viability ([11]; 100 nM): 90.1%; normalised viability ([12]; 10 nM): 105%; normalised viability ([13]; 100 nM): 94.5%; normalised viability ([14]; 100 nM): 89.7%; drug sensitivity score [22]: 0; drug sensitivity score [25]: 0
O=C(Nc1cccnc1)N1CCC(Cc2cccc(Oc3ccc(C(F)(F)F)cn3)c2)CC1 [PF-3845] | 116% | 111% | 86.9% | 92.2% | 104% | 89.9% | 99.6% | 107% | 0 | 0 | 0 | 0 | 0 | 0 | 0 | 0 | 0 | 0 | 0 | 0 | normalised viability ([9]; 10 nM): 116%; normalised viability ([10]; 100 nM): 122%; normalised viability ([11]; 100 nM): 128%; normalised viability ([12]; 10 nM): 105%; normalised viability ([13]; 100 nM): 102%; normalised viability ([14]; 100 nM): 104%; drug sensitivity score [22]: 0; drug sensitivity score [25]: 0
C=C1C[C@@H]2[C@H](CC[C@]3(C)C(=O)CC[C@@H]23)[C@@]2(C)C=CC(=O)C=C12 [Exemestane] | 99.4% | 106% | 95.4% | 84.4% | 91.1% | 96% | 87.6% | 103% | 0 | 0 | 0 | 0 | 1.08 | 0 | 0 | 0 | 0 | 0 | 0 | 0 | normalised viability ([9]; 10 nM): 102%; normalised viability ([10]; 100 nM): 94.4%; normalised viability ([11]; 100 nM): 99.2%; normalised viability ([12]; 10 nM): 102%; normalised viability ([13]; 100 nM): 111%; normalised viability ([14]; 100 nM): 78%; drug sensitivity score [22]: 0; drug sensitivity score [25]: 0
Oc1ccc2c(c1)CC[C@H](c1ccccc1)[C@@H]2c1ccc(OCCN2CCCC2)cc1 [Lasofoxifene] |  |  |  |  |  |  |  |  | 0 | 0 | 0 | 0 | 3.43 | 0 | 0 | 3.26 | 0 | 0 | 0 | 0 | normalised viability ([1]; 10 nM): 122%; normalised viability ([2]; 10 nM): 113%; normalised viability ([3]; 1 nM): 101%; normalised viability ([4]; 1 nM): 94.4%; normalised viability ([5]; 1 nM): 98.7%; normalised viability ([6]; 10 nM): 90.7%; normalised viability ([7]; 10 nM): 104%; normalised viability ([8]; 10 nM): 87.2%; normalised viability ([9]; 1 nM): 107%; normalised viability ([10]; 10 nM): 84.3%; normalised viability ([11]; 10 nM): 90.1%; normalised viability ([12]; 1 nM): 108%; normalised viability ([13]; 10 nM): 87.2%; normalised viability ([14]; 10 nM): 83.2%; drug sensitivity score [22]: 0; drug sensitivity score [25]: 0
COc1cc(OC2CCN(C)CC2)ccc1Nc1ncc2c(n1)n(C1CCCC1)c(=O)n2C [AZ 3146] | 113% | 85% | 105% | 94.8% | 101% | 133% | 90.1% | 81.8% | 0 | 0 | 0 | 9.75 | 0 | 0 | 2.26 | 0 | 0 | 4.7 | 0 | 0 | normalised viability ([9]; 10 nM): 79.1%; normalised viability ([10]; 100 nM): 82%; normalised viability ([11]; 100 nM): 96.1%; normalised viability ([12]; 10 nM): 88.2%; normalised viability ([13]; 100 nM): 106%; normalised viability ([14]; 100 nM): 97.3%; drug sensitivity score [25]: 0
CN(C)CCOc1ccc(/C(=C(/CCCl)c2ccccc2)c2ccccc2)cc1 [Toremifene] | 126% | 109% | 108% | 100% | 106% | 109% | 114% | 97.5% | 2.47 | 0 | 0 | 0 | 0 | 0 | 0 | 0 | 0 | 0 | 0 | 4.22 | normalised viability ([9]; 10 nM): 129%; normalised viability ([10]; 100 nM): 85.4%; normalised viability ([11]; 100 nM): 94.2%; normalised viability ([12]; 10 nM): 118%; normalised viability ([13]; 100 nM): 106%; normalised viability ([14]; 100 nM): 88.8%; drug sensitivity score [22]: 5.17
